This experiment has as its target T1, Recombinant pure human SQSTM1 protein (Homo sapiens, UniProt Q13501).
T1 construct: purchased Origene
Kind of experiment: Inhibition of IA-Rhodamine labeling of SQSTM1 (gel-based, densitometry). The class given is binding. As to conditions: 50 μM of test compound (initial screen); 30 min at 37° C., then 100 nM IA-Rhodamine 1 hour; inhibition of target labeling by densitometry. The protocol:
Recombinant pure human SQSTM1 protein was purchased from Origene. SQSTM1 protein (0.21 μg) was diluted into 50 μL of PBS and 1 μL of either DMSO (vehicle) or covalently acting small molecule (test compound) to achieve the desired concentration. After 30 min. at 37° C., the samples were treated with 100 nM IA-Rhodamine (tetramethylrhodamine-5-iodoacetamide dihydroiodide; Setareh Biotech, 6222, prepared in anhydrous DMSO) for 1 hour at room temperature. Samples were then diluted with 20 μL of 4× reducing Laemmli SDS sample loading buffer (Alfa Aesar) and heated at 90° C. for 5 min. The samples were separated on precast 4-20% Criterion TGX gels (Bio-Rad Laboratories, Inc.). Fluorescent imaging was performed on a ChemiDoc MP instrument (Bio-Rad Laboratories, Inc.), and inhibition of target labeling was assessed by densitometry using ImageJ software. The initial screen was performed using 50 μM of test compound.
T1 sequence (Q13501 whole entry): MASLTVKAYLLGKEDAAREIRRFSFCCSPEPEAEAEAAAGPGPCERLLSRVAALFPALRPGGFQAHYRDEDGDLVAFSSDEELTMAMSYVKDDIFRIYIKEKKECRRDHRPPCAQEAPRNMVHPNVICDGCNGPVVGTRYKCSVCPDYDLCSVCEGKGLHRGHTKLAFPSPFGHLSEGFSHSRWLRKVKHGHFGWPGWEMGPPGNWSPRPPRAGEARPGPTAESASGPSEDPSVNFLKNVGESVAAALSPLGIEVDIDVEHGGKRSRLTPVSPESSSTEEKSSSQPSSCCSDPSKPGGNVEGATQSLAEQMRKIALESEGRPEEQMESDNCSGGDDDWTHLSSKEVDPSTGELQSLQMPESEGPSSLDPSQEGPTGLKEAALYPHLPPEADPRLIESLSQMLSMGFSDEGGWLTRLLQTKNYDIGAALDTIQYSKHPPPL
As to `CC1(O)CCCCN(C(=O)CCl)C1` (stereo not drawn) [Compound 39, 2-chloro-1-(3-hydroxy-3-methylazepan-1-yl)ethanone], the inhibition (commonly the share of the control response that was lost under treatment) at 50 µM is 20%. Still for that read-out and setting: the same measure for `O=C1CCN(C(=O)CCl)CCC1F` (stereo not drawn) [Compound 47, 1-(2-chloroacetyl)-5-fluoroazepan-4-one]: 36%.

Turning to `CC(C)N(C(=O)CCl)C1CCCN(C(=O)OC(C)(C)C)CC1` (stereo not drawn) [Compound 8, Tert-butyl 4-(2-chloro-N-isopropylacetamido)azepane-1-carboxylate], the inhibition at 50 µM amounted to 50%. For the compound `CC1CN(C(=O)CCl)CCCO1` (stereo not drawn) [Compound 22, 2-chloro-1-(2-methyl-1,4-oxazepan-4-yl)ethanone], the % inhibition – broadly, the change of the read-out against control, counted positive when it falls – is “not active”. As for `O=C(CCl)N1Cc2ccnn2CC(O)C1` (stereo not drawn) [Compound 55, 2-chloro-1-(7-hydroxy-7,8-dihydro-4H-pyrazolo[1,5-a][1,4]diazepin-5(6H)-yl)ethanone], the inhibition at 50 µM was found to be 35%. As for `O=C(CCl)N1CCOCC2(CNCCO2)C1` (stereo not drawn) [Compound 71, 2-chloro-1-(1,8-dioxa-4,11-diazaspiro[5.6]dodecan-11-yl)ethanone], the “% inhibition” value is “not active”. Regarding `O=C(CCl)N1CCCC2(CCCN2)CC1` (stereo not drawn) [Compound 69, 2-chloro-1-(1,8-diazaspiro[4.6]undecan-8-yl)ethanone], the inhibition at 50 µM is 22%. In the case of `C[C@H]1CN(C(=O)OC(C)(C)C)CCCN1C(=O)CCl` [Compound 12, (S)-tert-butyl 4-(2-chloroacetyl)-3-methyl-1,4-diazepane-1-carboxylate], the “% inhibition” value is recorded as “not active”. On to `O=C(CCl)N1CCCCC(O)(CF)C1` (stereo not drawn) [Compound 32, 2-chloro-1-(3-(fluoromethyl)-3-hydroxyazepan-1-yl)ethanone], for which the inhibition at 50 µM worked out at 17%. As for `O=C(CCl)N1CCOCC(F)(F)C1` [Compound 50, 2-chloro-1-(6,6-difluoro-1,4-oxazepan-4-yl)ethanone], the inhibition at 50 µM was 17%. Same read-out and setting: the same measure for `O=C(CCl)N1CCCC(O)CC1` (stereo not drawn) [Compound 15, 2-chloro-1-(4-hydroxyazepan-1-yl)ethan-1-one]: 29%. With `O=C(CCl)N1CCCCC2(CCCCNC2)C1` (stereo not drawn) [Compound 70, 2-chloro-1-(2,9-diazaspiro[6.6]tridecan-2-yl)ethanone], the inhibition at 50 µM worked out at 22%. Still for that read-out and setting: the same measure for `O=C(NCC1(O)CCCN(C(=O)CCl)CC1)OCc1ccccc1` (stereo not drawn) [Compound 34, Benzyl ((1-(2-chloroacetyl)-4-hydroxyazepan-4-yl)methyl)carbamate]: 14%; for `O=C(CCl)N1CCCN(c2ccc(F)cn2)CC1` [Compound 16, 2-chloro-1-(4-(5-fluoropyridin-2-yl)-1,4-diazepan-1-yl)ethanone]: 20%; for `O=C(CCl)N1CCc2nccn2CC1` [Compound 56, 2-chloro-1-(8,9-dihydro-5H-imidazo[1,2-d][1,4]diazepin-7(6H)-yl)ethanone]: 50%. On the same count and under the same terms, the figure for `O=C(CCl)N1CC2CNC(C2)C1` (stereo not drawn) [Compound 73, 2-chloro-1-(3,6-diazabicyclo[3.2.1]octan-3-yl)ethanone] is 38%; for `O=C(CCl)N1CCNCC(O)C1` (stereo not drawn) [Compound 67, 2-chloro-1-(6-hydroxy-1,4-diazepan-1-yl)ethanone] it is 35%. Regarding `O=C(CCl)N1CCC(F)C(O)(C(F)(F)F)CC1` (stereo not drawn) [Compound 24, 2-chloro-1-(5-fluoro-4-hydroxy-4-(trifluoromethyl)azepan-1-yl)ethanone], the “% inhibition” value was “not active”. With `O=C(NCC1(O)CCCCN(C(=O)CCl)C1)OCc1ccccc1` (stereo not drawn) [Compound 30, Benzyl ((1-(2-chloroacetyl)-3-hydroxyazepan-3-yl)methyl)carbamate], the inhibition at 50 µM came out at 50%. The same measure, in the same setting: the figure for `CC(C)(C)OC(=O)N1CCC(N(C(=O)CCl)C2CCOCC2)CC1` [Compound 7, Tert-butyl 4-(2-chloro-N-(tetrahydro-2H-pyran-4-yl)acetamido)piperidine-1-carboxylate] is 61%.

Take `O=C(CCl)N1CCC(F)C(F)(F)CC1` (stereo not drawn) [Compound 43, 2-chloro-1-(4,4,5-trifluoroazepan-1-yl)ethanone]: the inhibition at 50 µM was determined as 25%.

On to `CC1(F)CCCCN(C(=O)CCl)C1` (stereo not drawn) [Compound 29, 2-chloro-1-(3-fluoro-3-methylazepan-1-yl)ethanone], for which the inhibition at 50 µM is 38%.

For `CCOC(=O)C1(C)CCCCN(C(=O)CCl)C1` (stereo not drawn) [Compound 25, Ethyl 1-(2-chloroacetyl)-3-methylazepane-3-carboxylate], the inhibition at 50 µM turned out to be 31%.

For `O=C(CCl)N1CCCSCC1` [Compound 51, 2-chloro-1-(1,4-thiazepan-4-yl)ethanone], the inhibition at 50 µM was determined as 33%.

In the case of `CC(C)(C)OC(=O)N1CCN(C(=O)CCl)CC2(CCCC(=O)N2)C1` (stereo not drawn) [Compound 60, Tert-butyl 11-(2-chloroacetyl)-2-oxo-1,8,11-triazaspiro[5.6]dodecane-8-carboxylate], the inhibition at 50 µM is 21%. Still for that read-out and setting: the figure for `CC1(CNC(=O)OCc2ccccc2)CCCCN(C(=O)CCl)C1` (stereo not drawn) [Compound 26, Benzyl ((1-(2-chloroacetyl)-3-methylazepan-3-yl)methyl)carbamate] is 70%; for `CC(C)N(C(=O)CCl)C1CCCNCC1` (stereo not drawn) [Compound 64, N-(azepan-4-yl)-2-chloro-N-isopropyl-acetamide] it is 22%. Consider `NC1CCCCN(C(=O)CCl)C1` (stereo not drawn) [Compound 68, 1-(3-aminoazepan-1-yl)-2-chloro-ethanone], for which the inhibition at 50 µM was 44%. The same measure, in the same setting: the figure for `COC(=O)N1CCCN(C(=O)CCl)CC1` [Compound 17, Methyl 4-(2-chloroacetyl)-1,4-diazepane-1-carboxylate] is 9%.

With `O=C1CC(N(Cc2ccccc2)C(=O)CCl)CN1Cc1ccccc1` (stereo not drawn) [Compound 11, N-benzyl-N-(1-benzyl-5-oxo-pyrrolidin-3-yl)-2-chloro-acetamide], the inhibition at 50 µM was found to be 57%. On to `O=C1CCCC2(CNCCN(C(=O)CCl)C2)N1` (stereo not drawn) [Compound 72, 8-(2-chloroacetyl)-1,8,11-triazaspiro[5.6]dodecan-2-one], for which the “% inhibition” value was “not active”. Regarding `O=C(CCl)N(Cc1ccccc1)C1CCCCC1` [Compound 2, N-benzyl-2-chloro-N-cyclohexylacetamide], the inhibition at 50 µM is 50%. Consider `O=C(CCl)N(Cc1ccccc1)[C@H]1COC[C@@H]1O` [Compound 5, N-benzyl-2-chloro-N-((3S,4R)-4-hydroxytetrahydrofuran-3-yl)acetamide], for which the “% inhibition” value is given as 25%. For the compound `O=C(NCC1(F)CCCN(C(=O)CCl)CC1)OCc1ccccc1` (stereo not drawn) [Compound 38, Benzyl ((1-(2-chloroacetyl)-4-fluoroazepan-4-yl)methyl)carbamate], the inhibition at 50 µM amounted to 40%. Regarding `CC1CCN(C(=O)CCl)CCC1CNC(=O)OCc1ccccc1` (stereo not drawn) [Compound 41, Benzyl ((1-(2-chloroacetyl)-5-methylazepan-4-yl)methyl)carbamate], the inhibition at 50 µM turned out to be 54%. With `CC1(C)CCCN(C(=O)CCl)CC1` [Compound 23, 2-chloro-1-(4,4-dimethylazepan-1-yl)ethanone], the inhibition at 50 µM came out at 21%.

As to `CC(C)(C)OC(=O)N1CCC(N(C(=O)CCl)C2CC2)CC1` [Compound 6, Tert-butyl 4-(2-chloro-N-cyclopropylacetamido)piperidine-1-carboxylate], the inhibition at 50 µM stood at 56%. Still for that read-out and setting: the figure for `CC(C)(C)OC(=O)NC1CCCCN(C(=O)CCl)C1` (stereo not drawn) [Compound 37, Tert-butyl (1-(2-chloroacetyl)azepan-3-yl)carbamate] is 30%; for `CC(C)(C)OC(=O)N1CCN(C(=O)CCl)CC(O)C1` (stereo not drawn) [Compound 18, Tert-butyl 4-(2-chloroacetyl)-6-hydroxy-1,4-diazepane-1-carboxylate] it is 21%. `CC1CCCCCN1C(=O)CCl` (stereo not drawn) [Compound 13, 2-chloro-1-(2-methylazepan-1-yl)ethan-1-one]: the inhibition at 50 µM is 49%.

Consider `CCN1CCCN(C(=O)CCl)CC1` [Compound 14, 2-chloro-1-(4-ethyl-1,4-diazepan-1-yl)ethan-1-one], for which the inhibition at 50 µM was 38%. The same measure, in the same setting: the figure for `O=C(CCl)N1CCCCC(O)C1` (stereo not drawn) [Compound 44, 2-chloro-1-(3-hydroxyazepan-1-yl)ethanone] is 13%; for `O=C(CCl)N(Cc1ccccc1)[C@H]1CCC[C@@H]1O` [Compound 4, N-benzyl-2-chloro-N-((1S,2S)-2-hydroxycyclopentyl)acetamide] it is 18%. Turning to `CC1CCN(C(=O)CCl)CCC1O` (stereo not drawn) [Compound 45, 2-chloro-1-(4-hydroxy-5-methylazepan-1-yl)ethanone], the “% inhibition” value was “not active”. For `CC1CN(C(=O)CCl)CCCC1CNC(=O)OCc1ccccc1` (stereo not drawn) [Compound 28, Benzyl ((1-(2-chloroacetyl)-3-methylazepan-4-yl)methyl)carbamate], the inhibition at 50 µM was 59%. For `O=C(CCl)N(C1CCNCC1)C1CCOCC1` [Compound 63, 2-chloro-N-(piperidin-4-yl)-N-(tetrahydro-2H-pyran-4-yl)acetamide], the “% inhibition” value is on record as “not active”. Same read-out and setting: the entry for `C[C@H]1CNCCCN1C(=O)CCl` [Compound 66, (S)-2-chloro-1-(2-methyl-1,4-diazepan-1-yl)ethanone] is “not active”. Take `COC(=O)c1ccc(CN(C(=O)CCl)C2CCNCC2)[nH]1` [Compound 65, Methyl 5-[[(2-chloroacetyl)-(4-piperidyl)amino]methyl]-1H-pyrrole-2-carboxylate]: the inhibition at 50 µM stood at 7%.

These data come from patent US20220387411A1, “TARGETED AUTOPHAGY CONJUGATES AND METHODS” (Frontier Medicines Corporation, priority 2019, published 2022).
